Values of other authors, collected in patent US20160081915A1, “TRANSDERMAL FORMULATIONS OF FLUTICASONE” (STRATEGIC SCIENCE & TECHNOLOGIES, LLC, priority 2013, published 2016).

Conditions: oral; extensive first-pass metabolism in the liver

half-life when delivered orally: about 7.8 hours
SMILES: C[C@@H]1C[C@H]2[C@@H]3C[C@H](F)C4=CC(=O)C=C[C@]4(C)[C@@]3(F)[C@@H](O)C[C@]2(C)[C@@]1(O)C(=O)SCF [fluticasone]
